In US5444083A, “Pyrrolidine compound and pharmaceutical use” (Eisai Co., Ltd., priority 1989, dated 1995):
Where a name gives a salt, the structure may show the parent alone.

How the values were obtained:
[1] = biological target: T1, D1 receptor (striatum of rat) (Rattus norvegicus, UniProt P18901); experiment: specific binding of D1 receptors in the striatum of rat; conditions: displacement of 3H-Sch23390 0.3 nM, rat striatum synaptosome fraction, 37 degree centigrade, 15 minutes
T1 construct: The striatum of rats were excised, homogenized; from tissue; host or cells: rat striatum, synaptosome fraction
Experimental: (§1) 1. Test on specific binding of D1 and D2 receptors in the striatum of rat
(§2) The striatum of rats were excised, homogenized with a 0.05M Tris Fuffer and then centrifuged at 20,000×g to collect its synaptosome fraction. The sediment was washed several times with a 0.25M Tris Buffer and suspended in a 0.05M Tris Buffer containing 120 mM of Nacl, 5 mM of KCl, 2 mM of CaCls and 1 mM of MgCl2. The suspension was, in portions, placed in the frozen state at minus 80 degree centigrade. ^3 H-Sch23390 having a final concentration of 0.3 nM in the case of D1 and ^3 H-Spiperone having a finish concentration of 0.2 nM in the case of D2 were added to the portions of the suspension, respectively, together with a specimen. The mixtures were incubased at 37 degree centigrade for 15 minutes. Having been filtrated with a Whatman GF/B filter, they were examined with a liquid scintillation counter.

[2] = biological target: T2, D2 receptor (striatum of rat) (Rattus norvegicus, UniProt P61169); experiment: specific binding of D2 receptors in the striatum of rat; conditions: displacement of 3H-Spiperone 0.2 nM, rat striatum synaptosome fraction, 37 degree centigrade, 15 minutes
T2 construct: The striatum of rats were excised, homogenized; from tissue; host or cells: rat striatum, synaptosome fraction
Experimental: as §1, §2

anesthetized dogs = experiment: Action cardiohemodynamics in anesthetized dogs; format: in vivo, Mongrel dogs; conditions: Canis lupus familiaris, iv, intravenously, read-out: decrease of mean blood pressure; for inhibition in vivo at 0.003 mg/kg: 3 microgram/kg; for inhibition in vivo at 0.001 mg/kg: 1 microgram/kg; for inhibition in vivo at 0.01 mg/kg: 10 microgram/kg
Experimental: 2. Action cardiohemodynamics in anesthetized dogs
Mongrel dogs of about 10 kg were anesthetized with the intravenous administration of 20 mg/kg of thiopental sodium. They were then treated by introducing oxygen gas, nitrous oxide gas and enflurane in combination through an endotracheal tube inserted thereinto to conduct artificial respiration and with an Acoma artificial respirator ARF-850E (trademark) and an Acoma anesthesia apparatus EM-A (trademark) to keep the anesthesia still effective. The aortic pressure and the internal pressure of the left ventricle were determined with a micro-tip catheter pressure transducers, MPC-500, tradename of Miller, inserted at the femoral arteries. The renal blood […] was determined by exposing by laparotomy the renal artery to a probe of an electromagnetic blood flowmeter, MFV-2100, tradename of Nihon Kohden Corp. Results are caught with a polygraph system, RM-6000, tradename of Nihon Kohden Corp.
The specimen was dissolved in a 0.9% saline solution and administered at the brachial vein through a catheter inserted thereinto. When the administration was made at the duodenum, the duodenum was exposed by the median incision to a catheter inserted thereinto. Results are shown in terms of an increase in percent of the renal blood flow and a decrease in percent of the mean blood pressure when the test compound was administered.

T1 sequence (P18901 whole entry): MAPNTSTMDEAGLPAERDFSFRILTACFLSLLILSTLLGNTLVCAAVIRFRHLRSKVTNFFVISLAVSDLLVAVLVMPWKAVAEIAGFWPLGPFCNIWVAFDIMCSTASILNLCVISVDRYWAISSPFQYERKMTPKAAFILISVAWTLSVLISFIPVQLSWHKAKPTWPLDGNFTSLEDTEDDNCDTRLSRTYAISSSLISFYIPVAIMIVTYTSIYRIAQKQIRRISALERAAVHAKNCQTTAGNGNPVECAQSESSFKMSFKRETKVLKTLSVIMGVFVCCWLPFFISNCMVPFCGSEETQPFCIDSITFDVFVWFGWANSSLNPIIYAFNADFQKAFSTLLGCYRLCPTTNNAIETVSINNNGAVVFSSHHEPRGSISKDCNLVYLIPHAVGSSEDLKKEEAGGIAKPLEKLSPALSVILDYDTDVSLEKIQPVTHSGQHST
T2 sequence (P61169 whole entry): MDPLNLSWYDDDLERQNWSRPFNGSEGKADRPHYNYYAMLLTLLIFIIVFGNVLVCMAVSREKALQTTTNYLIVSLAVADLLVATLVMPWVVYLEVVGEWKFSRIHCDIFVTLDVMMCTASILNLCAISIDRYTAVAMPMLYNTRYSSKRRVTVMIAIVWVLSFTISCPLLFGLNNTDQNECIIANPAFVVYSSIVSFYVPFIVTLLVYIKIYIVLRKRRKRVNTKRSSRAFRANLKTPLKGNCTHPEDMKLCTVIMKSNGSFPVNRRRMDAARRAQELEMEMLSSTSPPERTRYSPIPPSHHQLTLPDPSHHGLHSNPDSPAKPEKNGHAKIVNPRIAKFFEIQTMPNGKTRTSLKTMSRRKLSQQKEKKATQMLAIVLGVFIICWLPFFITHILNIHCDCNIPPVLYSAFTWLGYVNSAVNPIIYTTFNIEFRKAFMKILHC

Structure (SMILES) | IC50 [1] [µM] | IC50 [2] [µM] | inhibition in vivo at 0.003 mg/kg (anesthetized dogs) [%] | inhibition in vivo at 0.001 mg/kg (anesthetized dogs) [%] | inhibition in vivo at 0.01 mg/kg (anesthetized dogs) [%]
Oc1ccc([C@@H]2CNC[C@H]2Cc2cc(F)cc(F)c2O)cc1O (relative stereo) [Compound K, trans-3-(3,5-difluoro-2-hydroxyphenyl)-methyl-4-(3,4-dihydroxyphenyl)-pyrrolidine] | 0.13 | 2 |  | 17 | 
Oc1ccc([C@@H]2CNC[C@H]2Cc2c(O)cccc2O)cc1O (relative stereo) [Compound I, trans-3-(2,6-dihydroxyphenyl)methyl-4-(3,4-dihydroxyphenyl)pyrrolidine] | 0.2 | 0.07 | 29 |  | 
Oc1ccc([C@@H]2CNC[C@H]2Cc2c(O)ccc(Cl)c2O)cc1O (relative stereo) [Compound J, trans-3-(3-chloro-2,6-dihydroxyphenyl)-methyl-4-(3,4-dihydroxyphenyl)-pyrrolidine] | 0.13 | 1 |  | 22 | 
Oc1ccc([C@@H]2CNC[C@H]2Cc2cccc(F)c2O)cc1O (relative stereo) [Compound L, trans-3-(3-fluoro-2-hydroxyphenyl)methyl-4-(3,4-dihydroxyphenyl)pyrrolidine] | 0.2 | 5 | 21 |  | 
Oc1ccc([C@@H]2CNC[C@H]2Cc2cc(Cl)ccc2O)cc1O (relative stereo) [Compound H, trans-3-(3-chloro-6-hydroxyphenyl)-methyl-4-(3,4-dihydroxyphenyl)-pyrrolidine] | 0.3 | 0.3 | 15 |  | 

The next lines start with results.

IC50 [1] [µM] | IC50 [2] [µM] | Structure (SMILES) | inhibition in vivo at 0.003 mg/kg (anesthetized dogs) [%] | inhibition in vivo at 0.001 mg/kg (anesthetized dogs) [%] | inhibition in vivo at 0.01 mg/kg (anesthetized dogs) [%]
0.38 | 5.3 | Oc1ccc([C@@H]2CNC[C@H]2c2cccc(O)c2Cl)cc1O (relative stereo) [Compound D, trans-3-(2-chloro-3-hydroxyphenyl)-4-(3,4-dihydroxyphenyl)pyrrolidine hydrobromide] | 15 |  | 
4.8 | 88 | Oc1ccc([C@@H]2CNC[C@H]2c2ccccc2)cc1O (relative stereo) [Compound A, trans-3-(3,4-dihydroxyphenyl)-4-phenylpyrrolidine hydrobromide] |  |  | 
0.4 | 6 | Oc1ccc([C@@H]2CNC[C@H]2c2cccc3ccsc23)cc1O (relative stereo) [Compound G, trans-3-(7-benzothiophenyl)-4-(3,4-dihydroxyphenyl)pyrrolidine hydrobromide] |  |  | 
0.6 | 7 | Oc1ccc([C@@H]2CNC[C@H]2c2ccccc2Cl)cc1O (relative stereo) [Compound C, trans-3-(2-chlorophenyl)-4-(3,4-dihydroxyphenyl)pyrrolidine hydrobromide] |  |  | 21
0.17 | 90 | Cc1ccsc1[C@@H]1CNC[C@H]1c1ccc(O)c(O)c1 (relative stereo) [Compound E, trans-3-(3,4-dihydroxyphenyl)-4-(3-methylthienyl)pyrrolidine hydrobromide] |  |  | 15
9 | 50 | Cc1ccsc1[C@H]1CNC[C@H]1c1ccc(O)c(O)c1 (relative stereo) [Compound F, cis-3-(3,4-dihydroxyphenyl)-4-(3-methylthienyl)pyrrolidine hydrobromide] |  |  | 
0.6 | 10 | Cc1ccccc1[C@@H]1CNC[C@H]1c1ccc(O)c(O)c1 (relative stereo) [Compound B, trans-3-(3,4-dihydroxyphenyl)-4-(2-methylphenyl)pyrrolidine hydrobromide] |  |  | 23
